The results in this text go back to patent US20030166001A1, “Toll-like receptor 3 signaling agonists and antagonists” (priority 2001, published 2003).

One data set addresses T1, hTLR9 (Homo sapiens, UniProt Q9NR96).
T1 construct: expressed in transfected cells; host or cells: human 293 fibroblasts (ATCC CRL-1573), transient transfection by the calcium phosphate method
T1 sequence (Q9NR96 26-1032): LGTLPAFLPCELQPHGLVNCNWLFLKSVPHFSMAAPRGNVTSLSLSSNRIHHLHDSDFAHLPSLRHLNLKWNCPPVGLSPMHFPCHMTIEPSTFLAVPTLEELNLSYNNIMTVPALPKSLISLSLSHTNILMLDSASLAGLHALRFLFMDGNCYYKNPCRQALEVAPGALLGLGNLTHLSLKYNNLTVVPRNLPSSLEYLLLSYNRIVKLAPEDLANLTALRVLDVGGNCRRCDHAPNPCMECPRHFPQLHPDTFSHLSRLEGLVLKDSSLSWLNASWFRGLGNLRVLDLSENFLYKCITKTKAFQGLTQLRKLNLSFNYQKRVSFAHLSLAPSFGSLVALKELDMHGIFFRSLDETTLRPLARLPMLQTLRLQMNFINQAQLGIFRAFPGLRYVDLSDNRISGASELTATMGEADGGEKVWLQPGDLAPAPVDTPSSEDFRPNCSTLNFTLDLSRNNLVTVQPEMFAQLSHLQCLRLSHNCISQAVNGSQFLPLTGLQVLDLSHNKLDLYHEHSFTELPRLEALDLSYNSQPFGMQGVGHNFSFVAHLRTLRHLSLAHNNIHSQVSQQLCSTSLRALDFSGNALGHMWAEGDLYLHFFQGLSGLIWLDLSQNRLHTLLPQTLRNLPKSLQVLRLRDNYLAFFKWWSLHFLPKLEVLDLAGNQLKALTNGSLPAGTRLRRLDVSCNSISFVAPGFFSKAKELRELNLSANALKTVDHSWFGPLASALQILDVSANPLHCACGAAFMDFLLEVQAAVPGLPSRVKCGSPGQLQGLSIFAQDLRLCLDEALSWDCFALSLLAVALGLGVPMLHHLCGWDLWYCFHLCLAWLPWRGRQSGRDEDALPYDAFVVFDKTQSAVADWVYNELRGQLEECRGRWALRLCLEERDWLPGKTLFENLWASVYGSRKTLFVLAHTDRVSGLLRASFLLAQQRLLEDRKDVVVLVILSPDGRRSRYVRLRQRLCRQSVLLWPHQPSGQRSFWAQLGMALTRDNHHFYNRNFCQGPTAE
As to the kind of experiment: 293 fibroblasts transiently transfected with hTLR9, NF-κB-luc readout or IL-8 ELISA. It counts as cell-based. The following applies: CpG-ODN 2006 2 μM, LPS 100 ng/ml; 8 h luciferase, 48 h IL-8; FIG. 1. The source says:
Methods for cloning murine and human TLR9 have been described in pending U.S. patent application Ser. No. 09/954,987 and corresponding published PCT application PCT/US01/29229, both filed Sep. 17, 2001, the contents of which are incorporated by reference. Human TLR9 cDNA and murine TLR9 cDNA in pT-Adv vector (from Clonetech) were individually cloned into the expression vector pcDNA3.1(−) from Invitrogen using the EcoRI site. Utilizing a “gain of function” assay it was possible to reconstitute human TLR9 (hTLR9) and murine TLR9 (mTLR9) signaling in CpG-DNA non-responsive human 293 fibroblasts (ATCC, CRL-1573). The expression vectors mentioned above were transfected into 293 fibroblast cells using the calcium phosphate method.
Since NF-κB activation is central to the IL-1/TLR signal transduction pathway (Medzhitov R et al. (1998) Mol Cell 2:253-258 (1998); Muzio M et al. (1998) J Exp Med 187:2097-101), cells were transfected with hTLR9 or co-transfected with hTLR9 and an NF-κB-driven luciferase reporter construct. […] After stimulus with CpG-ODN (2006, 2 μM, […], SEQ ID NO:15), GpC-ODN (2006-GC, 2 μM, […], SEQ ID NO:16), LPS (100 ng/ml) or media, NF-κB activation by luciferase readout (8 h, FIG. 1A) or IL-8 production by ELISA (48 h, FIG. 1B) were monitored. […]
For orientation: ELISA stands for enzyme-linked immunosorbent assay.

For data set [1], the target named is T2, murine TLR9 (Mus musculus, UniProt Q9EQU3).
T2 sequence (Q9EQU3 26-1032): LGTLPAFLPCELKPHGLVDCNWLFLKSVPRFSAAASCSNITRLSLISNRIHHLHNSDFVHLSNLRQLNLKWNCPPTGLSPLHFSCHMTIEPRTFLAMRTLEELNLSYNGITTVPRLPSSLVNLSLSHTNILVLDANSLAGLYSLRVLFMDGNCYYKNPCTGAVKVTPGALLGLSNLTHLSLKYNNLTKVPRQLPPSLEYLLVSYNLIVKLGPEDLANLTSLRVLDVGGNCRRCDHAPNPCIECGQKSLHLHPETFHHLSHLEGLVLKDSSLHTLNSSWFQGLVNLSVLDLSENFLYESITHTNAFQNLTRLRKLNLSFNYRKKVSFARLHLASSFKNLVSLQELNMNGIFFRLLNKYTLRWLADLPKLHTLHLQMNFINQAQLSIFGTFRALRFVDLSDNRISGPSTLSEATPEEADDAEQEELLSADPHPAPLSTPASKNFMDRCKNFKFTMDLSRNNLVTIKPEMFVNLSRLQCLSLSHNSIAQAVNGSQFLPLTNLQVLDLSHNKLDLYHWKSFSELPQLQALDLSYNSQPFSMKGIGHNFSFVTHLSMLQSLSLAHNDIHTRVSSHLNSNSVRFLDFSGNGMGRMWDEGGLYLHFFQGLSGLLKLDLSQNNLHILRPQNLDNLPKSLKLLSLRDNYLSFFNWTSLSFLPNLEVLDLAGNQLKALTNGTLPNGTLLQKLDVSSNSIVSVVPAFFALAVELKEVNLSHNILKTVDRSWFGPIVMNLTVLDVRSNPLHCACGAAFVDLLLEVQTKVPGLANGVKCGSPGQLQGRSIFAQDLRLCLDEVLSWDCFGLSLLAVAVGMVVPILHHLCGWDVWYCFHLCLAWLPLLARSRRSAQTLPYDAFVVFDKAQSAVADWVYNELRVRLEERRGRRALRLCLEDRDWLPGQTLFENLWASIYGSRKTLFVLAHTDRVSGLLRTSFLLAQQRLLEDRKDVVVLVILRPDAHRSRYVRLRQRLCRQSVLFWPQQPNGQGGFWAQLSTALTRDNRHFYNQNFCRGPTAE
As to the kind of experiment: 293 fibroblasts stably transfected with murine TLR9 and NF-κB-luciferase reporter, ODN stimulation. As to conditions: for course of activity (EC50) curves with time: ODN with less stable diester linkages; for pEC50: read-out: EC50 (concentration of the ligand stimulus that results in 50% maximal activation), NF-κB luciferase induction, stimulated for 16 hours, ODN titrated between 10 μM and 2 nM, FIG. 6. In general terms: Reporter assays use an easily measured gene product as a stand-in for the process of interest.
Description: (§1) Human 293 fibroblast cells stably transfected with murine TLR9 and an NF-κB-luciferase reporter were stimulated for 16 hours with the following fully phosphorothioated oligodeoxynucleotides (ODN):
(§2) Concentration of the stimulus was titrated between 10 μM and 2 nM. […] EC50 is defined as the concentration of the ligand stimulus that results in 50% maximal activation.
(§3) A family of stimulation curves was determined at various times of assay incubation between 1 and 24 hours. The EC50 was determined for each ligand at each time point.

Data set [2] deals with T2, murine TLR9.
Description: as §1, §2, §3
Where [3] appears, read: assay incubation between 1 and 24 hours, FIG. 7.

pEC50: −log10 of the molar value. In the oligonucleotide strings, read from the 5' end, every base follows the letter of its sugar. An asterisk marks phosphorothioate; unmarked linkages are phosphodiester. Other units and linkages are bracketed, terminal groups are in braces. A string of capitals states the bases alone. d = 2'-deoxy (DNA)

In the case of lipopolysaccharide [LPS], the “response of cells expressing hTLR9 (NF-κB activation by luciferase readout, IL-8 production by ELISA)” value at hTLR9 is reported as “not”. On to “T*C*G*T*C*G*T*T*T*T_G_T_C_G_T*T*T*T*G*T*C*G*T*T [ODN 5497]”, for which, at murine TLR9 [1] (setting [3]), the “course of activity (EC50) curves with time” value was “turn upward with time”. Same read-out and setting: the entry for “T*C_G*T*C_G*T*T*T*T_G*T*C_G*T*T*T*T*G*T*C_G*T*T [ODN 5746]” is “turn upward with time”. “T*C*C*A*T*G*A*C*G*T*T*T*T*T*G*A*T*G*T*T (TCCATGACGTTTTTGATGTT; chemistry not given here) [ODN 5890]”: the “affinity of ligand/receptor interaction from EC50 versus time curves” value with murine TLR9 [1] (setting [3]) is “higher affinity”. Also, the pEC50 in the data set with murine TLR9 [1] was 7.38. Besides, the “maximal activity (maximal fold induction) versus time” value in the data set with murine TLR9 [2] is listed as “less efficient at delivering high activity”. As to “T*C*C*A*T*G*A*C_G_T*T*T*T*T*G*A*T_G*T*T [ODN 5902]”, the “course of activity (EC50) curves with time” value at murine TLR9 [1] (setting [3]) is on record as “turn upward with time”. As for “T*C*G*T*C*G*T*T*T*T*G*T*C*G*T*T*T*T*G*T*C*G*T*T [ODN 2006]”, on hTLR9, the “response of cells expressing hTLR9 (NF-κB activation by luciferase readout, IL-8 production by ELISA)” value was “responded”. “T*C*C*A*T*G*A*C*G*T*T*T*T*T (dT*dC*dC*dA*dT*dG*dA*dC*dG*dT*dT*dT*dT*dT) [ODN 5897]”: in the data set with murine TLR9 [1], the pEC50 is 5.91.
